Results on 19 compounds are retold here after ChEMBL document CHEMBL5365451, “Discovery of CVN417, a Novel Brain-Penetrant α6-Containing Nicotinic Receptor Antagonist for the Modulation of Motor Dysfunction” (J Med Chem, 2023).

The nature of data set [1]: Antagonist activity at human alpha6-alpha3/beta2/beta3 V273S mutant nAChR expressed in HEK293 cells assessed as nicotine-induced intracellular calcium release incubated for 15 mins by FLIPR analysis. Format: cell-based. The following applies: HEK293, 0.25 h. In general terms: Calcium assays in cells follow changes in intracellular calcium, usually with a dye or a luminescent sensor.

Data set [2] deals with Neuronal acetylcholine receptor; alpha3/beta4 (Homo sapiens, UniProt P30926+P32297). Put plainly: Antagonist activity at human alpha3/beta4 nAChR expressed in HEK293 cells assessed as nicotine-induced intracellular calcium release incubated for 15 mins by FLIPR analysis. The format is cell-based.
Sequence of Neuronal acetylcholine receptor; alpha3/beta4 (P30926 whole entry): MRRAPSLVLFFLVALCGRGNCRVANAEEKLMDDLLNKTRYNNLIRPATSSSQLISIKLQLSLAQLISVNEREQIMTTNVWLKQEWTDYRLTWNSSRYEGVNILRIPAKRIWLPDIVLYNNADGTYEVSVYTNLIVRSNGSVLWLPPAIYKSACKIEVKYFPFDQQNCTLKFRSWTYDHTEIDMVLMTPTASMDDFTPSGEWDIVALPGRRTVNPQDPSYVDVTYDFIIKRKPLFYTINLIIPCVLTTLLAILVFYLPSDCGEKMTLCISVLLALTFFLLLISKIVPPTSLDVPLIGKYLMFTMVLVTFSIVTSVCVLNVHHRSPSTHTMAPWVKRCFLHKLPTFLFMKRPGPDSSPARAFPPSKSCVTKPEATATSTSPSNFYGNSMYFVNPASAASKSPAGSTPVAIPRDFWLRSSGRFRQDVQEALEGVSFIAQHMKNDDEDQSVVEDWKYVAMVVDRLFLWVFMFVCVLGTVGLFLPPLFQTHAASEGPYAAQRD
Sequence of Neuronal acetylcholine receptor; alpha3/beta4 (P32297 whole entry): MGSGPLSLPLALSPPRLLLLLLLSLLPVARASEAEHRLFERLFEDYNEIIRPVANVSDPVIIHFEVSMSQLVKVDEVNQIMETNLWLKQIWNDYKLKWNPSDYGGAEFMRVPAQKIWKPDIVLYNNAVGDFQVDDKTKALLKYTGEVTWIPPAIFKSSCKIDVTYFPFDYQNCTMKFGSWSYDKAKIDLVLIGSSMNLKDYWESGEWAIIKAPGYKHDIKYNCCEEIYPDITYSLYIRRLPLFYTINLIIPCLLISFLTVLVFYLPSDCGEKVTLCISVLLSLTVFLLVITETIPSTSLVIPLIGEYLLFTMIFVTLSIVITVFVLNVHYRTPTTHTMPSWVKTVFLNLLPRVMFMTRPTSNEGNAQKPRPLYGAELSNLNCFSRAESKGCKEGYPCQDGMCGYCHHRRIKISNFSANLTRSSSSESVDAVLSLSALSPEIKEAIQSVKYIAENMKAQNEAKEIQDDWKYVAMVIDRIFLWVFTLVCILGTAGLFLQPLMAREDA
Data set [3] concerns the target Neuronal acetylcholine receptor; alpha4/beta2 (Homo sapiens, UniProt P17787+P43681). The data set is described as follows: Antagonist activity at human alpha4/beta2 nAChR expressed in HEK293 cells assessed as nicotine-induced intracellular calcium release incubated for 15 mins by FLIPR analysis. The format is cell-based.
A short description of data set [4]: Metabolic stability in human liver microsome assessed as clearance preincubated for 60 mins followed by NADPH addition and measured after 60 mins by LC-MS/MS analysis. The format is ADME. The following applies: liver microsomes, time 120 min, read-out: CLH.
Data set [5] in a line: Metabolic stability in rat liver microsome assessed as clearance preincubated for 60 mins followed by NADPH addition and measured after 60 mins by LC-MS/MS analysis. The format is ADME. The following applies: liver microsomes, time 120 min, read-out: CLH.
Data set [6] in a line: Intrinsic clearance in Sprague-Dawley rat at 0.5 mg/kg, iv by LC-MS/MS analysis. The format is ADME, organism-based. As to conditions: in vivo.
Data set [7] can be described thus: Volume of distribution at steady state in Sprague-Dawley rat at 0.5 mg/kg, iv by LC-MS/MS analysis. The following applies: in vivo, read-out: Vdss. The format is ADME, organism-based.
The nature of data set [8]: Oral bioavailability in Sprague-Dawley rat 3 mg/kg by LC-MS/MS analysis. The format is ADME, organism-based. As to conditions: in vivo.
Data set [9] in a line: Drug exposure in Sprague-Dawley rat brain at 3 mg/kg, po measured for 2 hrs by LC-MS/MS analysis. The format is ADME, organism-based. As to conditions: read-out: Drug uptake.
Data set [10] deals with Rattus norvegicus. The data set is described as follows: Protection against tacrine-induced po dosed Sprague-Dawley rat tremulous jaw model assessed as decrease in tremor duration pretreated with compound for 90 mins followed by tacrine addition and measured after 5 mins. Format: functional, organism-based. The following applies: dose 3-25 mg/kg, time 95.0 min.
Data set [11] relates to Brain. Put plainly: Drug concentration in po dosed Sprague-Dawley rat brain measured after 2 hrs by LC-MS/MS analysis. The following applies: dose 3-25 mg/kg. Format: functional, organism-based.
Data set [12] is described as follows: Metabolic stability in human liver microsome assessed as clearance at 10 uM incubated upto 2 hrs by LC-MS/MS analysis. Format: ADME. As to conditions: liver microsomes, read-out: CLH.
Data set [13] in a line: Metabolic stability in rat liver microsome assessed as clearance at 10 uM incubated upto 2 hrs by LC-MS/MS analysis. The format is ADME. The following applies: liver microsomes, read-out: CLH. A general note: Microsomes from liver hold many membrane-bound enzymes, among them those of drug oxidation.
Data set [14] deals with Rattus norvegicus. The data set is described as follows: Protection against tacrine-induced Sprague-Dawley rat tremulous jaw model assessed as decrease in tremor jaw movement at 25 mg/kg, po pretreated with compound for 90 mins followed by tacrine addition and measured after 5 mins. Also noted: scale not given: the % may be the effect or the level left. The format is functional. As to conditions: time 95 min, 1.583 h.

SMILES strings stand for the structures. Some results are limits rather than exact numbers.

Sequence of Neuronal acetylcholine receptor; alpha4/beta2 (P17787 whole entry): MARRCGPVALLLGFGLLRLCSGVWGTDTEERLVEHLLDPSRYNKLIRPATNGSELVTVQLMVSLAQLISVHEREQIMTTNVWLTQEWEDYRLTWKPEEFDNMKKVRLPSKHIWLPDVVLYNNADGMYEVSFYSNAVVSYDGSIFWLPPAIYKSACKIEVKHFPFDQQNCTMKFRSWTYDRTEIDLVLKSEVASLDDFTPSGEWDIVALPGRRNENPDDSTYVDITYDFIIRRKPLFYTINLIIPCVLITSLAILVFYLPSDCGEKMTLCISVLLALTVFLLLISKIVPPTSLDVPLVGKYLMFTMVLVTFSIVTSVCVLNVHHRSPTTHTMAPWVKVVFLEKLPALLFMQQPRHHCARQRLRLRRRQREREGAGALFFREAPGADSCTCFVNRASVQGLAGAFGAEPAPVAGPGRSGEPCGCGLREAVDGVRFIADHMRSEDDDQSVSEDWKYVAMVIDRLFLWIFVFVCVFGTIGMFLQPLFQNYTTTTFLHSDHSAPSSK
Sequence of Neuronal acetylcholine receptor; alpha4/beta2 (P43681 whole entry): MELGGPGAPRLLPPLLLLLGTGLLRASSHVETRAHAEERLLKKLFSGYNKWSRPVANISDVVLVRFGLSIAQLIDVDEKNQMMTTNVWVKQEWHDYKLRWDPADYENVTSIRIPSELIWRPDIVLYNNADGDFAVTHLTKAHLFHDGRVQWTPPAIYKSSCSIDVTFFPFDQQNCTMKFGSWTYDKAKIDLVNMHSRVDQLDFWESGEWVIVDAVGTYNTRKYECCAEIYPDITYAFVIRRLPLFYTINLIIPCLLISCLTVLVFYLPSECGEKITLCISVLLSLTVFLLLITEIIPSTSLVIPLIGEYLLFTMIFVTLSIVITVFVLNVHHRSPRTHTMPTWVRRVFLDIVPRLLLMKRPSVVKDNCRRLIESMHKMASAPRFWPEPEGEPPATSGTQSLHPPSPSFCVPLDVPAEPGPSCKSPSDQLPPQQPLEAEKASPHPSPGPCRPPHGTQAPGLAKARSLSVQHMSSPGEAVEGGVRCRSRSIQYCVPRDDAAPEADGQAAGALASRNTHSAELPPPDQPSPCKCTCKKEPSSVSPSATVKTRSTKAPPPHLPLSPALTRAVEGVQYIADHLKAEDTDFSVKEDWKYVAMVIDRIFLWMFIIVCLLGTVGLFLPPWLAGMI

As for `Cc1ccc(C)c(Cn2nc(C)cc2C(=O)N[C@@H]2C[C@H]3CCC[C@@H](C2)N3C)c1`, the IC50 in data set [1] was 703 nM.

In the case of `CN1CCC(NC(=O)c2cc(-c3ccc(C(F)(F)F)cc3)nn2C)CC1`, the IC50 in data set [1] was determined as 3840 nM.

In the case of `CN1CCC[C@@H](NC(=O)c2cc(-c3ccc(C(F)(F)F)cc3)n(C)n2)C1`, the IC50 in data set [1] stood at 80 nM; in [2], 637 nM; in data set [3], 2820 nM. For the same compound, the microsomal CLint was 21.4 µL/min/mg in [4] and 3.5 µL/min/mg in [5]. The CL in data set [6] was found to be 70 mL/min/kg. Further, the Vd in data set [7] amounted to 13.4 L/kg. Also, the bioavailability in data set [8] was above 100%. In addition, the concentration at 2 h in [9] came out at 1910 nM.

Consider `COc1ccc(-c2cc(C(=O)N[C@@H]3CCCN(C)C3)nn2C)c(Cl)c1`, for which the IC50 in [1] is 77 nM; in [2], 2090 nM; in data set [3], 563 nM. In data set [10], the Activity result is “Dose-Dependent Effect”. Moreover, the Drug uptake result in data set [11] is “Dose-Dependent Effect”.

As for `Cn1nc(C(=O)NCC2CCCOC2)cc1-c1ccc(C(F)(F)F)cc1` (racemic), the IC50 in data set [1] was 3290 nM.

For `COc1ccc(-c2cc(C(=O)N[C@@H]3CN(C)CCC3(F)F)nn2C)c(Cl)c1`, in data set [1], the IC50 was 94 nM. The results for the microsomal CLint at 10 µM in data set [12] and in data set [13] were 61.3 µL/min/mg and below 6.4 µL/min/mg, respectively.

For the compound `[2H]C([2H])([2H])Oc1ccc(-c2cc(C(=O)N[C@H]3CCCN(C([2H])([2H])[2H])C3)nn2C([2H])([2H])[2H])c(Cl)c1`, the IC50 in data set [1] worked out at 89 nM. Further, the figures for the microsomal CLint at 10 µM in [12] and in data set [13] were 0.7 µL/min/mg and 11 µL/min/mg, respectively.

Regarding `CN1CCC(NC(=O)c2cc(-c3ccc(C(F)(F)F)cc3)n(C)n2)C1` (racemic), the IC50 in data set [1] came to 132 nM; in [2], 2450 nM; in data set [3], 7720 nM. For the same compound, the microsomal CLint in data set [4] was found to be 28.9 µL/min/mg; in data set [5], 31.2 µL/min/mg. In data set [6], the CL came to 47 mL/min/kg. Besides, the Vd in data set [7] was 18.5 L/kg. Also, in data set [8], the bioavailability was found to be 18.1%. The concentration at 2 h in data set [9] turned out to be 948 nM.

For `COc1ccc(-c2cc(C(=O)N[C@@H]3CCCN(C)C3)nn2C)cc1`, the IC50 in data set [1] was 230 nM; in [2], above 10000 nM; in data set [3], 3500 nM.

`Cn1nc(C(=O)NCCN2CCCCC2)cc1-c1ccc(C(F)(F)F)cc1`: the IC50 in data set [1] stood at 60 nM; in [2] it was 450 nM; in [3], 3180 nM. Also, the microsomal CLint in data set [4] and in data set [5] was 3.1 µL/min/mg each time. In addition, the CL in data set [6] came out at 64.9 mL/min/kg. Also, the Vd in [7] turned out to be 29.8 L/kg. For the same compound, the bioavailability in [8] is 82%. Moreover, the concentration at 2 h in data set [9] stood at 524 nM.

Consider `COc1ccc(-c2cc(C(=O)N[C@H]3CCCN(C)C3)nn2C)cc1`, for which the IC50 in data set [1] is 194 nM; in data set [2], above 10000 nM; in data set [3] it was 2620 nM.

On to `CN1CCC[C@H](NC(=O)c2cc(-c3ccc(C(F)(F)F)cc3Cl)n(C)n2)C1`, for which the IC50 in [1] stood at 83 nM.

As to `CN1CCC[C@H](NC(=O)c2cc(-c3ccc(C(F)(F)F)cc3)n(C)n2)C1`, the IC50 in data set [1] was 93 nM; in data set [2], 422 nM; in data set [3], 3730 nM. The microsomal CLint in data set [4] came to 9.6 µL/min/mg; in data set [5], 2.5 µL/min/mg. Besides, the CL in [6] was 40.5 mL/min/kg. Further, in [7], the Vd worked out at 13 L/kg. This compound also returned a bioavailability in [8] of 17.3%. Besides, the concentration at 2 h in data set [9] came out at 1090 nM.

Consider `CN(C)C1(CNC(=O)c2cc(-c3ccc(C(F)(F)F)cc3)n(C)n2)CCCC1`, for which the IC50 amounted to 183 nM in [1], 1410 nM in [2] and 281 nM in data set [3]. This compound also gave a CL in data set [6] of 81.8 mL/min/kg. Further, the Vd in data set [7] was 18.7 L/kg. Besides, the bioavailability in data set [8] amounted to 27.8%. The concentration at 2 h in data set [9] stood at 30 nM.

Turning to `CN1CCC(NC(=O)c2cc(-c3ccc(C(F)(F)F)cc3)n(C)n2)CC1`, the IC50 was 139 nM in [1], 4960 nM in data set [2] and 1040 nM in data set [3]. This compound had a CL in [6] of 41.5 mL/min/kg. In [7], the Vd stood at 25.7 L/kg. The same compound yielded a bioavailability in data set [8] of 70.1%. The concentration at 2 h in data set [9] came to 2970 nM.

For the compound `CCCN(CCC)CCc1cccc2c1CC(=O)N2` [ROPINIROLE], the Activity in data set [14] was 17.5%.

As to `CN1CCC[C@@H](NC(=O)c2cc(-c3ccc(C(F)(F)F)cc3Cl)n(C)n2)C1`, in data set [1], the 50% inhibitory concentration (IC50) stood at 76 nM.

For `CN1[C@@H]2CCC[C@H]1C[C@H](NC(=O)c1cc(-c3ccc(C(F)(F)F)cc3)n(C)n1)C2`, the IC50 in [1] is 133 nM; in data set [2] it was 6250 nM; in data set [3], 993 nM. Also, the microsomal CLint stood at 1.2 µL/min/mg in data set [4] and 3.2 µL/min/mg in data set [5]. In addition, in [6], the CL turned out to be 20.4 mL/min/kg. In addition, in data set [7], the Vd came to 23.4 L/kg. Also, the bioavailability in [8] is 86.6%. In addition, the concentration at 2 h in data set [9] is 140 nM.

For the compound `COc1ccc(-c2cc(C(=O)N[C@H]3CN(C)CCC3(F)F)nn2C)c(Cl)c1`, the IC50 in data set [1] is 115 nM. Further, the values for the microsomal CLint at 10 µM in data set [12] and in [13] were 75.5 µL/min/mg and 204 µL/min/mg, respectively.

Broadly, the IC50 is the concentration at which inhibition is half-maximal. As a reminder, the bioavailability is the share of a dose that reaches the circulation, judged against a reference dose that is usually intravenous.
